SMILES strings stand for the structures.

As usually defined, the chromatographic logP is a lipophilicity value derived from retention on a column. Higher therefore signals higher lipophilicity.

This series in a line: logP by HPLC on reverse-phase column (EEC Directive 79/831 Annex V.A8). The note with it: for chromatographic logP: reverse-phase C18 HPLC column, pH 2.7, HPLC, C18 reverse phase, 43° C., acidic range pH 2.7, calibration with alkan-2-ones; for logP: HPLC-MS. It is filed as physicochemical. How it is done:
The logP values reported in the above Tables and Preparation Examples were determined according to EEC Directive 79/831 Annex V.A8 by HPLC (High Performance Liquid Chromatography) on a reverse-phase column (C18). Temperature 43° C.

Consider `O=C(O)/C=C/c1cc(C(F)(F)F)c(C(=O)NC2CC2)cn1` [(2E)-3-[5-(Cyclopropylcarbamoyl)-4-(trifluoromethyl)pyridin-2-yl]acrylic acid], for which the chromatographic logP worked out at 1.26. The compound `CC(C)(C)OC(=O)NC1CCc2cc(/C=C/C(=O)O)ccc21` (stereo not shown) [(2E)-3-{1-[(tert-Butoxycarbonyl)amino]-2,3-dihydro-1H-inden-5-yl}acrylic acid] gave a chromatographic logP of 2.47.

In turn, `CCOC(=O)c1cc(I)c(N)cc1Cl` [Ethyl 4-amino-2-chloro-5-iodobenzoate] displayed a chromatographic logP of 2.95. For `CCOC(=O)c1cc2cc(C(=O)NC(c3cccc(C(F)(F)F)c3)C(F)(F)F)n(C)c2cc1Cl` (stereo not shown) [Ethyl 6-chloro-1-methyl-2-({2,2,2-trifluoro-1-[3-(trifluoromethyl)phenyl]ethyl}carbamoyl)-1H-indole-5-carboxylate], the chromatographic logP is 4.74.

`CCOC(=O)c1cc2cc(C(=O)NC(c3cccc(C(F)(F)F)c3)C(F)(F)F)[nH]c2cc1Cl` (stereo not shown) [Ethyl 6-chloro-2-({2,2,2-trifluoro-1-[3-(trifluoromethyl)phenyl]ethyl}carbamoyl)-1H-indole-5-carboxylate]: the chromatographic logP came out at 4.12.

On to `O=C(/C=C/c1ccc(NC(=O)c2cccnc2Cl)cc1)NC(c1cc(Cl)cc(Cl)c1)C(F)(F)F` (stereo not shown) [Ia-2], for which the logP entry is listed as “HPLC-MS: logP = 3.69; mass”. Turning to `CC(=O)Nc1ccc(/C=C/C(=O)NC(c2cccc(C(F)(F)F)c2)C(F)(F)F)cc1` (stereo not shown) [Ia-3], the logP entry is listed as “HPLC-MS: logP = 2.95; mass”. The same measure, in the same setting: the entry for `O=C(/C=C/c1cccc(NC(=O)C2CC2)c1)NC(c1cccc(C(F)(F)F)c1)C(F)(F)F` (stereo not shown) [Ia-4] is “HPLC-MS: logP = 3.42; mass”; for `O=C(/C=C/c1ccc(NC(=O)CC(F)(F)F)cc1)NC(c1cccc(C(F)(F)F)c1)C(F)(F)F` (stereo not shown) [Ia-6] it is “HPLC-MS: logP = 3.43; mass”; for `O=C(/C=C/c1ccc(-n2cncn2)c([N+](=O)[O-])c1)NC(c1cccc(C(F)(F)F)c1)C(F)(F)F` (stereo not shown) [Ia-9] it is “HPLC-MS: logP = 3.11; mass”. For the compound `N#Cc1cc(/C=C/C(=O)NC(c2cccc(C(F)(F)F)c2)C(F)(F)F)ccc1-n1cncn1` (stereo not shown) [Ia-10], the logP entry is “HPLC-MS: logP = 2.99; mass”.

`Cc1cc(/C=C/C(=O)NC(c2cccc(C(F)(F)F)c2)C(F)(F)F)ccc1C(=O)NC1CC1` (stereo not shown) [Ia-11]: the logP entry was “HPLC-MS: logP = 3.02; mass”.

In the case of `Cc1cc(/C=C/C(=O)NC(c2cc(Cl)cc(Cl)c2)C(F)(F)F)ccc1C(=O)NC1CC1` (stereo not shown) [Ia-12], the logP entry is on record as “HPLC-MS: logP = 3.33; mass”. On the same count and under the same terms, the entry for `N#Cc1cc(/C=C/C(=O)NC(c2cccc(F)c2)C(F)(F)F)ccc1-n1cncn1` (stereo not shown) [Ia-13] is “HPLC-MS: logP = 2.61; mass”; for `N#Cc1cc(/C=C/C(=O)NC(c2ccc(C(F)(F)F)cc2)C(F)(F)F)ccc1-n1cncn1` (stereo not shown) [Ia-14] it is “HPLC-MS: logP = 3.08; mass”. Regarding `N#Cc1cc(/C=C/C(=O)NC(c2cc(Cl)cc(Cl)c2)C(F)(F)F)ccc1-n1cncn1` (stereo not shown) [Ia-16], the logP entry is “HPLC-MS: logP = 3.33; mass”. `Cc1cc(/C=C/C(=O)NC(c2cc(Cl)cc(Cl)c2)C(F)(F)F)ccc1C(=O)NCC(F)(F)F` (stereo not shown) [Ia-20]: the logP entry is on record as “HPLC-MS: logP = 3.90; mass”. On to `CN(C(=O)/C=C/c1ccc(C#N)cc1)C(c1cccc(C(F)(F)F)c1)C(F)(F)F` (stereo not shown) [Ia-25, (2E)-3-(4-Cyanophenyl)-N-methyl-N-{2,2,2-trifluoro-1-[3-(trifluoromethyl)phenyl]-ethyl}acrylamide], for which the chromatographic logP worked out at 4.01.

`COC(=O)c1ccc(/C=C/C(=O)NC(c2cccc(C(F)(F)F)c2)C(F)(F)F)cc1C` (stereo not shown) [Ia-26]: the logP entry is recorded as “HPLC-MS: logP = 4.09; mass”. Still for that read-out and setting: the entry for `O=C(/C=C/c1ccc(C(=O)NCc2ccccn2)c(C(F)(F)F)c1)NC(c1cccc([N+](=O)[O-])c1)C(F)(F)F` (stereo not shown) [Ia-33] is “HPLC-MS: logP = 2.93; mass”; for `O=C(/C=C/c1ccc(C(=O)NCc2ccccn2)c(C(F)(F)F)c1)NC(c1ccc([N+](=O)[O-])cc1)C(F)(F)F` (stereo not shown) [Ia-34] it is “HPLC-MS: logP = 2.93; mass”; for `O=C(/C=C/c1ccc(C(=O)NCc2ccccn2)c(C(F)(F)F)c1)NC(c1c(F)cccc1F)C(F)(F)F` (stereo not shown) [Ia-35] it is “HPLC-MS: logP = 2.46; mass”. Consider `O=C(/C=C/c1ccc(C(=O)NC2CC2)c(C(F)(F)F)c1)NC(c1c(F)cccc1F)C(F)(F)F` (stereo not shown) [Ia-38], for which the logP entry is on record as “HPLC-MS: logP = 2.89; mass”.

With `Cc1cc(/C=C/C(=O)NC(c2cc(Cl)cc(C(F)(F)F)c2)C(F)(F)F)ccc1C(=O)NC1CC1` (stereo not shown) [Ia-39], the logP result is “HPLC-MS: logP = 3.47; mass”. For the compound `O=C(/C=C/c1ccc(C(=O)Nc2cccnc2)c(C(F)(F)F)c1)NC(c1cccc(C(F)(F)F)c1)C(F)(F)F` (stereo not shown) [Ia-53], the logP result is listed as “HPLC-MS: logP = 2.76; mass”.

With `COC(=O)c1ccc(C(NC(=O)/C=C/c2ccc(C(=O)NC3CC3)c(C(F)(F)F)c2)C(F)(F)F)cc1C(F)(F)F` (stereo not shown) [Ia-81], the logP result was “HPLC-MS: logP = 3.09; mass”. Regarding `CCOC1(NC(=O)c2ccc(/C=C/C(=O)NC(c3cccc(C(F)(F)F)c3)C(F)(F)F)cc2C)CC1` (stereo not shown) [Ia-85], the logP result is given as “HPLC-MS: logP = 3.27 mass”. On the same count and under the same terms, the entry for `Cc1cc(/C=C/C(=O)NC(c2cccc(C(F)(F)F)c2)C(F)(F)F)ccc1C(=O)N(C)C1CC1` (stereo not shown) [Ia-116] is “HPLC-MS: logP = 3.37 mass”; for `O=C(/C=C/c1ccc(S(=O)(=O)NC2CC2)cc1)NC(c1cccc(C(F)(F)F)c1)C(F)(F)F` (stereo not shown) [Ia-117] it is “HPLC-MS: logP = 3.33; mass”.

Regarding `O=C(/C=C/c1ccc(C(=O)NC2CC2)c(Cl)c1)NC(c1cccc(C(F)(F)F)c1)C(F)(F)F` (stereo not shown) [Ia-118], the logP entry was “HPLC-MS: logP = 3.24; mass”. On the same count and under the same terms, the entry for `O=C(/C=C/c1ccc(C(=O)Nc2cccc(Cl)n2)c(C(F)(F)F)c1)NC(c1cccc(C(F)(F)F)c1)C(F)(F)F` (stereo not shown) [Ia-120] is “HPLC-MS: logP = 4.33; mass”; for `O=C(/C=C/c1ccc(C(=O)NCc2ncccn2)c(Br)c1)NC(c1cccc(C(F)(F)F)c1)C(F)(F)F` (stereo not shown) [Ia-133] it is “HPLC-MS: logP = 2.93; mass”. Still for that read-out and setting: the entry for `CC(NC(=O)c1ccc(/C=C/C(=O)NC(c2cccc(C(F)(F)F)c2)C(F)(F)F)cc1C(F)(F)F)C1(Cl)CC1` (stereo not shown) [Ia-171] is “HPLC-MS: logP = 4.18; mass”; for `CC(CF)NC(=O)c1ccc(/C=C/C(=O)NC(c2cccc(C(F)(F)F)c2)C(F)(F)F)cc1Br` (stereo not shown) [Ia-173] it is “HPLC-MS: logP = 3.35; mass”.

As to `O=C(/C=C/c1ccc(C(=O)NCc2nccs2)c(Br)c1)NC(c1cccc(C(F)(F)F)c1)C(F)(F)F` (stereo not shown) [Ia-177], the logP result is listed as “HPLC-MS: logP = 3.14; mass”. As for `CC(C)C(C#N)NC(=O)c1ccc(/C=C/C(=O)NC(c2cccc(C(F)(F)F)c2)C(F)(F)F)cc1Cl` (stereo not shown) [Ia-182], the logP entry was “HPLC-MS: logP = 3.68; mass”. On the same count and under the same terms, the entry for `O=C(/C=C/c1ccc(C(=O)Nc2nccs2)c(Cl)c1)NC(c1cccc(C(F)(F)F)c1)C(F)(F)F` (stereo not shown) [Ia-185] is “HPLC-MS: logP = 3.51; mass”.

For `Cn1ccc(CNC(=O)c2ccc(/C=C/C(=O)NC(c3cccc(C(F)(F)F)c3)C(F)(F)F)cc2Cl)n1` (stereo not shown) [Ia-186], the logP entry is “HPLC-MS: logP = 2.95; mass”. On the same count and under the same terms, the entry for `O=C(/C=C/c1ccc(C(=O)Nc2cccnn2)c(Cl)c1)NC(c1cccc(C(F)(F)F)c1)C(F)(F)F` (stereo not shown) [Ia-217] is “HPLC-MS: logP = 3.29; mass”. For `COC(=O)c1ccc(NC(=O)c2ccc(/C=C/C(=O)NC(c3cccc(C(F)(F)F)c3)C(F)(F)F)cc2Cl)nc1` (stereo not shown) [Ia-218], the logP result was “HPLC-MS: logP = 3.92; mass”. `O=C(/C=C/c1ccc(C(=O)NC2C[S+]([O-])C2)c(C(F)(F)F)c1)NC(c1cccc(C(F)(F)F)c1)C(F)(F)F` (stereo not shown) [Ia-227]: the logP entry is “HPLC-MS: logP = 2.71; mass”. Still for that read-out and setting: the entry for `O=C(/C=C/c1ccc(C(=O)Nc2ccc(Cl)nn2)c(Cl)c1)NC(c1cccc(C(F)(F)F)c1)C(F)(F)F` (stereo not shown) [Ia-228] is “HPLC-MS: logP = 3.7; mass”; for `O=C(/C=C/c1ccc(C(=O)NC2CC2)c(C(F)(F)F)c1)NC(c1cccc(F)c1)C(F)(F)F` (stereo not shown) [Ia-230] it is “HPLC-MS: logP = 2.95; mass”; for `O=C(/C=C/c1ccc(C(=O)NC2CC2)c(C(F)(F)F)c1)NC(c1cccc(Cl)c1)C(F)(F)F` (stereo not shown) [Ia-231] it is “HPLC-MS: logP = 3.22; mass”. Same read-out and setting: the entry for `Cc1cccc(C(NC(=O)/C=C/c2ccc(C(=O)NC3CC3)c(C(F)(F)F)c2)C(F)(F)F)c1` (stereo not shown) [Ia-232] is “HPLC-MS: logP = 3.17; mass”; for `O=C(/C=C/c1ccc(C(=O)NC2CC2)cc1Cl)NC(c1cccc(C(F)(F)F)c1)C(F)(F)F` (stereo not shown) [Ia-233] it is “HPLC-MS: logP = 3.46; mass”. Same read-out and setting: the entry for `O=C(/C=C/c1ccc(C(=O)NC2CC2)cc1Cl)NC(c1cccc(Cl)c1)C(F)(F)F` (stereo not shown) [Ia-234] is “HPLC-MS: logP = 3.3; mass”; for `O=C(/C=C/c1ccc(C(=O)NCc2ccc(F)cn2)c(Cl)c1)NC(c1cccc(C(F)(F)F)c1)C(F)(F)F` (stereo not shown) [Ia-236] it is “HPLC-MS: logP = 3.15; mass”; for `CCC(=O)NCc1ccc(/C=C/C(=O)NC(c2cccc(C(F)(F)F)c2)C(F)(F)F)cc1C(F)(F)F` (stereo not shown) [Ia-238] it is “HPLC-MS: logP = 3.51; mass”. Regarding `O=C(/C=C/c1ccc(CNC(=O)C2CC2)c(C(F)(F)F)c1)NC(c1cccc(C(F)(F)F)c1)C(F)(F)F` (stereo not shown) [Ia-240], the logP result is “HPLC-MS: logP = 3.76; mass”.

As to `CCC(=O)NCc1ccc(/C=C/C(=O)NC(c2cccc(C(F)(F)F)c2)C(F)(F)F)cc1` (stereo not shown) [Ia-241], the logP entry was “HPLC-MS: logP = 2.8; mass”. On the same count and under the same terms, the entry for `CS(=O)(=O)c1cccc(C(NC(=O)/C=C/c2ccc(C(=O)NC3CC3)c(C(F)(F)F)c2)C(F)(F)F)c1` (stereo not shown) [Ia-243] is “HPLC MS: logP = 2.31; mass”; for `CS(=O)(=O)c1cccc(C(NC(=O)/C=C/c2ccc(C(=O)Nc3ccccn3)c(C(F)(F)F)c2)C(F)(F)F)c1` (stereo not shown) [Ia-244] it is “HPLC-MS: logP = 2.62; mass”; for `CC(=O)NCc1ccc(/C=C/C(=O)NC(c2cccc([S+](C)[O-])c2)C(F)(F)F)cc1C(F)(F)F` (stereo not shown) [Ia-245] it is “HPLC-MS: logP = 1.98; mass”.

Turning to `O=C(/C=C/c1ccc(C(=O)Nc2ccccn2)c(C(F)(F)F)c1)NC(c1cccc(Cl)c1)C(F)(F)F` (stereo not shown) [Ia-246], the logP entry was “HPLC-MS: logP = 3.37; mass”.
